Source: US10167288B2, “Substituted pyrazolylpyrazole derivative and use of same as herbicide” (KYOYU AGRI CO., LTD., priority 2015, dated 2019)

How the values were obtained:
Type in all cases: in vivo
[1] = test system: Echinochloa crus-galli; test: Paddy herbicidal activity test; details: dropped into paddy water at 3.5 leaf stage of Echinochloa crus-galli, 30 days, 30° C., vs untreated group
Description: (§1) 1. Paddy Herbicidal Activity Test
(§2) Rice paddy soil was filled into a 1/10000 are pot followed by the addition of suitable amounts of water and chemical fertilizer, kneading, seeding with Echinochloa crus-galli, Monochoria vaginalis and Scirpus juncoides and maintaining in an irrigated state at a water depth of 3 cm.
(§3) Wettable powders of Target Compound (I) shown in Table 1 prepared in compliance with the preparation examples were diluted with a suitable amount of water, rice plants in the 2.0 leaf stage were transplanted during 3.5 leaf stage of Echinochloa crus-galli, and treated by dropping in chemical in the prescribed amount per 10 are using a pipette.
(§4) After treating for 30 days in a glass greenhouse at an average atmospheric temperature of 30° C., the herbicidal efficacy thereof was investigated.
(§5) Evaluation of herbicidal efficacy was carried out by comparing growth inhibition rate (%) with an untreated group, while evaluation of phytotoxicity was carried out by comparing growth inhibition rate (%) with the state of a complete eradication group, and were evaluated at 11 levels indicated below.

[2] = test system: Monochoria vaginalis; test: Paddy herbicidal activity test; details: dropped into paddy water at 3.5 leaf stage of Echinochloa crus-galli, 30 days, 30° C., vs untreated group
Description: as §1, §2, §3, §4, §5

[3] = test system: Scirpus juncoides; test: Paddy herbicidal activity test; details: dropped into paddy water at 3.5 leaf stage of Echinochloa crus-galli, 30 days, 30° C., vs untreated group
Description: as §1, §2, §3, §4, §5

[4] = test system: Oryza sativa; test: Paddy herbicidal activity test, phytotoxicity to transplanted rice; details: rice transplanted in the 2.0 leaf stage, 30 days, 30° C., vs complete eradication group
Description: as §1, §2, §3, §4, §5

[5] = test system: Amaranthus retroflexus; test: Farming soil treatment test; details: soil surface spray prior to weed growth, 30 days, 30° C.
Description: (§6) 2. Farming Soil Treatment Test Field soil was filled into a 1/6000 are pot followed by seeding with Digitaria ciliaris Chenopodium album and Amaranthus retroflexus and covering with soil. Wettable powders of compounds of formula (I) shown in Table 1 prepared in compliance with the preparation examples were diluted with water to the prescribed amount of chemical and uniformly sprayed onto each soil surface layer using 100 liters of sprayed water per 10 are prior to weed growth following seeding. After treating for 30 days in a glass greenhouse at an average atmospheric temperature of 30° C., the herbicidal efficacy thereof was investigated. Evaluation of herbicidal efficacy was carried out in the same manner as the above-mentioned Test Example 1.

[6] = test system: Chenopodium album; test: Farming soil treatment test; details: soil surface spray prior to weed growth, 30 days, 30° C.
Description: as §6

[7] = test system: Digitaria ciliaris; test: Farming soil treatment test; details: soil surface spray prior to weed growth, 30 days, 30° C.
Description: as §6

[8] = test system: Amaranthus retroflexus; test: Weed foliar treatment test (Test Example 3); details: foliar spray at 1.0 to 2.0 leaf stage of Digitaria ciliaris, 3 weeks, 25° C.
Description: (§7) 3. Weed Foliar Treatment Test
(§8) Soil was filled into a 1/6000 are pot followed by seeding with Digitaria ciliaris, Chenopodium album and Amaranthus retroflexus, covering with soil, and cultivating in a glass greenhouse at an average atmospheric temperature of 25° C.
(§9) Wettable powders of Target Compound (I) shown in Table 1 prepared in compliance with the preparation examples were diluted with water to the prescribed amount of chemical and uniformly sprayed onto the weeds using 150 liters of sprayed water per 10 are when Digitaria ciliaris had grown to the 1.0 to 2.0 leaf stage.
(§10) After treating for 3 weeks in a glass greenhouse at an average atmospheric temperature of 25° C., the herbicidal efficacy thereof was investigated.
(§11) Evaluation of herbicidal efficacy was carried out in the same manner as the above-mentioned Test Example 1.

[9] = test system: Chenopodium album; test: Weed foliar treatment test (Test Example 3); details: foliar spray at 1.0 to 2.0 leaf stage of Digitaria ciliaris, 3 weeks, 25° C.
Description: as §7, §8, §9, §10, §11

[10] = test system: Digitaria ciliaris; test: Weed foliar treatment test (Test Example 3); details: foliar spray at 1.0 to 2.0 leaf stage of Digitaria ciliaris, 3 weeks, 25° C.
Description: as §7, §8, §9, §10, §11

[11] = test system: Digitaria ciliaris; test: Weed foliar treatment test (Test Example 4); details: 10 g a.i./10 a; foliar spray at 4.0 to 5.0 leaf stage of Digitaria ciliaris (plant height 10 cm to 15 cm); 20 days, 25° C.
Description: (§12) 4. Weed Foliar Treatment Test
(§13) Field soil was filled into a 1/4500 are pot followed by seeding with Digitaria ciliaris and Galinsoga parviflora, covering with soil and cultivating in a glass greenhouse at an average atmospheric temperature of 25° C.
as §9, with “100” for “150”, “4.0” for “1.0”, “5.0” for “2.0”, “stage (plant height: 10 cm to 15 cm).” for “stage.”
(§14) After treating for 20 days in a glass greenhouse at an average atmospheric temperature of 25° C., the herbicidal efficacy thereof was investigated.
as §11

[12] = test system: Galinsoga parviflora; test: Weed foliar treatment test (Test Example 4); details: 10 g a.i./10 a; foliar spray at 4.0 to 5.0 leaf stage of Digitaria ciliaris (plant height 10 cm to 15 cm); 20 days, 25° C.
Description: as §12, §13
as §9, with “100” for “150”, “4.0” for “1.0”, “5.0” for “2.0”, “stage (plant height: 10 cm to 15 cm).” for “stage.”
as §14, §11

Structure (SMILES)	herbicidal efficacy, Echinochloa crus-galli ([1]; 1 g a.i./10 a)	herbicidal efficacy, Echinochloa crus-galli ([1]; 5 g a.i./10 a)	herbicidal efficacy, Monochoria vaginalis ([2]; 1 g a.i./10 a)	herbicidal efficacy, Monochoria vaginalis ([2]; 5 g a.i./10 a)	herbicidal efficacy, Scirpus juncoides ([3]; 1 g a.i./10 a)	herbicidal efficacy, Scirpus juncoides ([3]; 5 g a.i./10 a)	phytotoxicity, Oryza sativa ([4]; 1 g a.i./10 a)	phytotoxicity, Oryza sativa ([4]; 5 g a.i./10 a)	herbicidal efficacy, Amaranthus retroflexus ([5]; 5 g a.i./10 a)	herbicidal efficacy, Amaranthus retroflexus ([5]; 10 g a.i./10 a)	herbicidal efficacy, Chenopodium album ([6]; 5 g a.i./10 a)	herbicidal efficacy, Chenopodium album ([6]; 10 g a.i./10 a)	herbicidal efficacy, Digitaria ciliaris ([7]; 5 g a.i./10 a)	herbicidal efficacy, Digitaria ciliaris ([7]; 10 g a.i./10 a)	herbicidal efficacy, Amaranthus retroflexus ([8]; 5 g a.i./10 a)	herbicidal efficacy, Amaranthus retroflexus ([8]; 10 g a.i./10 a)	herbicidal efficacy, Chenopodium album ([9]; 5 g a.i./10 a)	herbicidal efficacy, Chenopodium album ([9]; 10 g a.i./10 a)	herbicidal efficacy, Digitaria ciliaris [11]	herbicidal efficacy, Galinsoga parviflora [12]	other results
COC(=O)Nc1c(C#N)cnn1-c1nn2c(c1Cl)CCC2 [Compound 3]	10 (100%)	10 (100%)	10 (100%)	10 (100%)	9 (90% to less than 100%)	10 (100%)	1 (10% to less than 20%)	1 (10% to less than 20%)	10 (100%)	10 (100%)	9 (90% to less than 100%)	10 (100%)	10 (100%)	10 (100%)	10 (100%)	10 (100%)	10 (100%)	10 (100%)	10 (100%)	10 (100%)	herbicidal efficacy, Digitaria ciliaris ([10]; 5 g a.i./10 a): 10 (100%); herbicidal efficacy, Digitaria ciliaris ([10]; 10 g a.i./10 a): 10 (100%)
CC(C)COC(=O)Nc1c(C#N)cnn1-c1nn2c(c1Cl)CCCC2 [Compound 10]	–	–	–	–	–	–	–	–	–	–	–	–	–	–	–	–	–	–	10 (100%)	10 (100%)	–
CCOC(=O)Nc1c([N+](=O)[O-])cnn1-c1nn2c(c1Cl)CCCC2 [Control agent 2.28, reference compound]	1 (10% to less than 20%)	2 (20% to less than 30%)	3 (30% to less than 40%)	4 (40% to less than 50%)	1 (10% to less than 20%)	2 (20% to less than 30%)	0 (0% to less than 10% (growth inhibition rate))	1 (10% to less than 20%)	3 (30% to less than 40%)	5 (50% to less than 60%)	4 (40% to less than 50%)	5 (50% to less than 60%)	1 (10% to less than 20%)	2 (20% to less than 30%)	3 (30% to less than 40%)	6 (60% to less than 70%)	6 (60% to less than 70%)	7 (70% to less than 80%)	1 (10% to less than 20%)	2 (20% to less than 30%)	herbicidal efficacy, Digitaria ciliaris ([10]; 5 g a.i./10 a): 2 (20% to less than 30%); herbicidal efficacy, Digitaria ciliaris ([10]; 10 g a.i./10 a): 4 (40% to less than 50%)
COC(=O)Nc1c(C#N)cnn1-c1nn2c(c1Cl)CCCC2 [Compound 7]	10 (100%)	10 (100%)	10 (100%)	10 (100%)	9 (90% to less than 100%)	10 (100%)	1 (10% to less than 20%)	1 (10% to less than 20%)	10 (100%)	10 (100%)	9 (90% to less than 100%)	10 (100%)	10 (100%)	10 (100%)	10 (100%)	10 (100%)	10 (100%)	10 (100%)	10 (100%)	10 (100%)	herbicidal efficacy, Digitaria ciliaris ([10]; 5 g a.i./10 a): 10 (100%); herbicidal efficacy, Digitaria ciliaris ([10]; 10 g a.i./10 a): 10 (100%)
CCCOC(=O)Nc1c(C#N)cnn1-c1nn2c(c1Cl)CCCC2 [Compound 4]	–	–	–	–	–	–	–	–	–	–	–	–	–	–	–	–	–	–	10 (100%)	10 (100%)	–
CCSC(=O)Nc1c(C#N)cnn1-c1nn2c(c1Cl)CCCC2 [Compound 11]	–	–	–	–	–	–	–	–	–	–	–	–	–	–	–	–	–	–	10 (100%)	10 (100%)	–
CCOC(=O)Nc1c(C#N)cnn1-c1nn2c(c1Cl)CCCC2 [Compound 1, Ethyl N-(1-(3-chloro-4,5,6,7-tetrahydropyrazolo[1,5-a]pyridin-2-yl)-4-cyanopyrazol-5-yl) Carbamate]	10 (100%)	10 (100%)	10 (100%)	10 (100%)	10 (100%)	10 (100%)	1 (10% to less than 20%)	1 (10% to less than 20%)	10 (100%)	10 (100%)	10 (100%)	10 (100%)	10 (100%)	10 (100%)	10 (100%)	10 (100%)	10 (100%)	10 (100%)	10 (100%)	10 (100%)	herbicidal efficacy, Digitaria ciliaris ([10]; 5 g a.i./10 a): 10 (100%); herbicidal efficacy, Digitaria ciliaris ([10]; 10 g a.i./10 a): 10 (100%)
